This note sets out measurements from PubChem BioAssay AID1552 (Sanford-Burnham Center for Chemical Genomics, 2009).

This assay concerns the target Ubiquitin-conjugating enzyme E2 N (Homo sapiens) (UniProt P61088). The assay is described as follows: UBE2N binders by NMR, biophysical, purified protein (AID 1552). The note with it: NMR binding to purified UBE2N.

Calls of active or inactive are those of the source. How the calls were made is not given here.

Chain of Ubiquitin-conjugating enzyme E2 N (Homo sapiens) (P61088 whole entry, looked up): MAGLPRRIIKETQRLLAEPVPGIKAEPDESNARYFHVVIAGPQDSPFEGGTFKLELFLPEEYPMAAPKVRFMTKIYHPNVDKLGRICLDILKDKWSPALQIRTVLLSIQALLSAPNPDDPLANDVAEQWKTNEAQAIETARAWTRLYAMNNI

A word on the Kd: it is the constant that tells how readily two partners part at equilibrium. With `CCSc1n[nH]c(=O)[nH]c1=O`, the Kd was > 4 mM (inactive).
Then `Cc1nnc(SCC(=O)N2CCc3ccccc32)s1`, with > 4 mM (inactive); and `COC1CC(O[C@H]2CC[C@]3(C=O)C4CC[C@]5(C)C(C6=CC(=O)OC6)CC[C@]5(O)C4CC[C@]3(O)C2)OC(C)C1O` (some centres undefined), with > 4 mM (inactive); and `O=C1CNC(=O)N1Cc1ccc(Br)cc1`, with > 4 mM (inactive).
Then `Cc1c(C(=O)O)cnn1-c1ccccc1`, with > 4 mM (inactive); and `C[C@@H]1O[C@@H](O[C@H]2C[C@@H](O)[C@]3(CO)C4C(CC[C@]3(O)C2)[C@@]2(O)CC[C@H](C3=CC(=O)OC3)[C@@]2(C)C[C@H]4O)[C@H](O)[C@H](O)[C@H]1O` (some centres undefined), with > 4 mM (inactive).
Then `CCCC(=O)N1CCSCC1`, with > 4 mM (inactive); and `C=CCn1c(-c2ccc(O)cc2)n[nH]c1=S`, with > 4 mM (inactive).
With `O=C1CCC(C(=O)NCc2ccc(Cl)cc2)N1` (centres undefined), the Kd is > 4 mM (inactive).
Under `Nc1ccc(OCc2ccccc2)cc1` stands > 4 mM (inactive); under `c1cc2c(cc1[C@H]1OC[C@H]3[C@@H]1CO[C@H]3c1ccc3c(c1)OCO3)OCO2`, > 4 mM (inactive).
As to `CC1(C)Cc2cccc(CO)c2O1`, the Kd is > 4 mM (inactive).
With `Cc1ccccc1N1CCN(C(=O)C2CCCCC2)CC1`, the Kd is > 4 mM (inactive).
Under `O=C(Nc1ccc(N2CCCC2=O)cc1)c1cccc(F)c1` stands > 4 mM (inactive); under `Cc1cc(=O)c2c(O)c(C)c(O)cc2o1`, > 4 mM (inactive); under `Cc1cc(=O)[nH]c(N2CCN(Cc3ccccc3)CC2)n1`, > 4 mM (inactive).
Then `COc1cc2c(cc1OC)[C@@H]1C(=O)c3ccc4c(c3O[C@@H]1CO2)CC(C(C)C)O4` (some centres undefined), with > 4 mM (inactive); and `Oc1cc2c(cc1O)C1c3ccc(O)c(O)c3OCC1(O)C2` (centres undefined), with > 4 mM (inactive).
Then `Cc1onc(-c2c(F)cccc2Cl)c1C(N)=O`, with > 4 mM (inactive).
As for `NCc1ccc(-c2cccs2)cc1`, the Kd was > 4 mM (inactive).
As for `CN(C)c1nc(N)nc(-c2nc3ccccc3s2)n1`, the Kd is > 4 mM (inactive).
As for `O=c1c2ccccc2nc2n1CCCCN2`, the Kd is > 4 mM (inactive).
In the case of `Nc1ncnc(NCCO)c1[N+](=O)[O-]`, the Kd was > 4 mM (inactive).
As to `CC(=O)Nc1ccc2c(c1)CCCC2=O`, the Kd was > 4 mM (inactive).
Under `Cc1ccc(SCc2cc(=O)n3[nH]c(C)nc3n2)cc1` stands > 4 mM (inactive); under `CC(=O)Oc1ccc(/C=C/c2cc(OC(C)=O)cc(OC(C)=O)c2)cc1`, > 4 mM (inactive).
In the case of `CN(C)S(=O)(=O)c1cccc(N)c1`, the Kd was > 4 mM (inactive).
Then `Cc1ccc(-c2nnn(CC(=O)O)n2)cc1`, with > 4 mM (inactive).
Take `CCn1cnc2cc(NCc3ccncc3)ccc21`: the Kd was > 4 mM (inactive).
Under `COc1cnn(-c2ccccc2)c(=O)c1N(C)C` stands > 4 mM (inactive).
Turning to `Cc1nn2c3ccccc3nc2n(Cc2ccccc2)c1=O`, the Kd is > 4 mM (inactive).
Under `O=c1cccc2n1C[C@H]1CNCC2C1` stands > 4 mM (inactive); under `COc1ccc2c(c1)=C(c1sc(N)nc1O)C(=O)N=2`, > 4 mM (inactive).
Under `CS(C)=C1C(=O)NC(=O)N(c2ccccc2)C1=O` stands > 4 mM (inactive); under `Cn1c(CO)nc2ccccc21`, > 4 mM (inactive); under `Cc1ccc(/C=N/NC(N)=O)o1`, > 4 mM (inactive).
Under `COc1ccc2c(c1)OCC(Cc1ccc(OC)c(OC)c1)C2=O` (centres undefined) stands > 4 mM (inactive); under `O=C1c2ccccc2C(=O)N1/N=C/c1ccc[nH]1`, > 4 mM (inactive); under `COc1ccc2c(c1)OCC(Cc1ccc(OC)c(O)c1)C2=O` (centres undefined), > 4 mM (inactive).
Turning to `CC(=O)O[C@@H]1C[C@@]2(C)[C@H](c3ccoc3)C[C@H]3O[C@]32[C@]2(C)C(=O)C(O)=C3C(C)(C)C(=O)C=C[C@]3(C)C12` (some centres undefined), the Kd was > 4 mM (inactive).
Under `O=C(Nc1nncs1)Oc1ccccc1` stands > 4 mM (inactive); under `C/C(=C\CO)CC[C@H](C)CCC[C@H](C)CCCC(C)C`, > 4 mM (inactive).
`O=C(O)CNCC(O)Cn1c2ccccc2c2ccccc21` (centres undefined): the Kd was > 4 mM (inactive).
Then `C=C1CCC2[C@](C)(CO)[C@H](O)CC[C@@]2(C)[C@@H]1C/C=C1/C(=O)OC[C@H]1O` (some centres undefined), with > 4 mM (inactive).
Then `O=C(Nc1ccccc1)NC1CCS(=O)(=O)C1` (centres undefined), with > 4 mM (inactive).
Under `S=c1oc(-c2ccncc2)nn1CCc1ccncc1` stands > 4 mM (inactive).
On to `CC1(C)Cc2c(c(-c3ccco3)[nH]c(=O)c2C#N)CO1`, for which the Kd was > 4 mM (inactive).
Then `Nc1ncnc2nc[nH]c12`, with > 4 mM (inactive); and `CC(=O)Nc1ccc(C)cc1NC(C)=O`, with > 4 mM (inactive); and `CCC(=O)OC1[C@@H]2CC3=C4CC(=O)O[C@@H](c5ccoc5)[C@]4(C)CCC3C(C)(C2=O)[C@@H](CC(=O)OC)C1(C)C` (some centres undefined), with > 4 mM (inactive).
Then `Cc1ccc(C(=O)N2CCC(C(=O)O)CC2)cc1`, with > 4 mM (inactive); and `Cc1cc(NC(=O)c2c(F)c(F)c(F)c(F)c2F)no1`, with > 4 mM (inactive).
With `CC1=NN2C(=N)/C(=C\c3cccs3)C(=O)N=C2S1`, the Kd is > 4 mM (inactive).
For `Cc1cccc(N2CCN(C(=O)c3ccncc3)CC2)c1C`, the Kd is > 4 mM (inactive).
Under `N=Cc1c(O)n(-c2cccc(Cl)c2)c(=O)[nH]c1=O` stands > 4 mM (inactive).
Then `O=C1C2C3C=CC(C3)C2C(=O)N1CCO` (centres undefined), with > 4 mM (inactive); and `Cc1ccc(=O)[nH]c1`, with > 4 mM (inactive).
Then `Nc1ccccc1OC(F)(F)F`, with > 4 mM (inactive).
On to `O=C(O)CCCN1CNC(=S)NC1`, for which the Kd was > 4 mM (inactive).
Then `Cc1nc2ccccc2c2c1C(=O)N(N)C2=O`, with > 4 mM (inactive); and `CC1(C)Cn2c(nnc2-c2ccccc2)S1`, with > 4 mM (inactive).
Under `COc1ccccc1NC(N)=S` stands > 4 mM (inactive); under `Cn1nnc2cc(C(=O)NC3=NCCS3)ccc21`, > 4 mM (inactive); under `Cc1nc2nc(Cc3ccccc3)[nH]n2c(=O)c1Cl`, > 4 mM (inactive).
Then `O=C(NN=C1CCCC1)c1ccncc1`, with > 4 mM (inactive); and `NCc1ccc(CN2CCOCC2)cc1`, with > 4 mM (inactive).
For the compound `CC1(NC(=O)NCc2ccccc2)CCS(=O)(=O)C1` (centres undefined), the Kd was > 4 mM (inactive).
Then `NC(=O)c1ccccc1NC(=O)c1cccnc1`, with > 4 mM (inactive); and `CC12CN([N+](=O)[O-])C3(C(N)=O)CC1CCC23C` (centres undefined), with > 4 mM (inactive); and `O=c1[nH]nnc2sc3c(c12)CCCC3`, with > 4 mM (inactive).
Then `Nc1ccc(-c2cn3c(n2)SCC3)cc1`, with > 4 mM (inactive); and `O=C(O)c1cc(O)c(O)c(O)c1`, with > 4 mM (inactive).
Under `Cc1nc(NCc2ccco2)nc2c1C(=O)CC(C)C2` (centres undefined) stands > 4 mM (inactive); under `CC(C)c1ccc(NC(=O)C(N)=O)cc1`, > 4 mM (inactive).
Turning to `Cc1cc(C)n2nc(NCc3ccccc3)nc2n1`, the Kd is > 4 mM (inactive).
Under `O=S1(=O)NC(=NCc2ccccc2)c2ccccc21` stands > 4 mM (inactive).
For the compound `CN1C2CCC1CC(OC(=O)C(CO)c1ccccc1)C2` (centres undefined), the Kd was > 4 mM (inactive).
Under `Cc1ccc(S(=O)(=O)/N=C2\NC(=O)CS2)cc1` stands > 4 mM (inactive); under `COc1cc(/C=C/C(=O)O)ccc1O`, > 4 mM (inactive).
Then `O=C(O)CCC(=O)c1c[nH]c2ccccc12`, with > 4 mM (inactive); and `CC1O[C@@H](Oc2c(-c3ccc(O)c(O)c3)oc3cc(O)cc(O)c3c2=O)[C@H](O)[C@H](O)[C@H]1O` (some centres undefined), with > 4 mM (inactive).
Then `Cc1cc(=O)n2[nH]c(COc3ccccc3)nc2n1`, with > 4 mM (inactive).
On to `CNC(=O)c1ccccc1-c1ccccc1`, for which the Kd is > 4 mM (inactive).
Then `COC[C@]12CN(C=O)C3[C@@H]4[C@H](OC)C1[C@]3(C1CC3(O)C(OC)C(O)C4(OC(C)=O)C1C3OC(=O)c1ccccc1)[C@@H](OC)C[C@H]2O` (some centres undefined), with > 4 mM (inactive); and `O=S1(=O)NC(=NCc2ccco2)c2ccccc21`, with > 4 mM (inactive); and `CCOC(=O)c1[nH]cnc1C(=O)OC(C)C`, with > 4 mM (inactive).
Then `CN(C)C(=S)Nc1ccccc1N1CCOCC1`, with > 4 mM (inactive).
Under `CC(C)=CC1C(CO)C1(C)C` (centres undefined) stands > 4 mM (inactive).
Regarding `O=C(O)Cn1c(C(F)(F)F)nc2ccccc21`, the Kd was > 4 mM (inactive).
Then `O=C(NCc1ccccc1F)c1cccs1`, with > 4 mM (inactive).
Under `CCNC(=S)Nc1c(C)n(C)n(-c2ccccc2)c1=O` stands > 4 mM (inactive).
Turning to `CC(=O)O[C@@H]1c2c(ccc3ccc(=O)oc23)OC(C)(C)[C@@H]1OC(=O)CC(C)C`, the Kd is > 4 mM (inactive).
For the compound `COc1c2occc2c(OC)c2c(=O)cc(C)oc12`, the Kd was > 4 mM (inactive).
For `CNC(=O)CC1Sc2ccccc2NC1=O` (centres undefined), the Kd is > 4 mM (inactive).
Under `COC(=O)C(O)[C@@H]1C2(C)C(=O)[C@@H](CC3=C4CC(=O)O[C@@H](c5ccoc5)[C@]4(C)CCC32)[C@H](OC(C)=O)C1(C)C` (some centres undefined) stands > 4 mM (inactive); under `Cc1nnc(NCCN2CCOCC2)[nH]c1=O`, > 4 mM (inactive); under `NCCc1ccc(S(N)(=O)=O)cc1`, > 4 mM (inactive).
Under `COc1ccc(NC(=O)/C=N/O)cc1` stands > 4 mM (inactive); under `COc1cc(O)c2c(c1)C(=O)c1cc(C)cc(O)c1C2=O`, > 4 mM (inactive).
